# Assay results from ChEMBL document CHEMBL4229477, “Reevaluating the Substrate Specificity of the L-Type Amino Acid Transporter (LAT1)” (J Med Chem, 2018).
# Molecular target: Large neutral amino acids transporter small subunit 1 (Homo sapiens, UniProt Q01650)
# Test: Cis-inhibition of human LAT1 expressed in TREx HEK293 cells at 200 uM assessed as inhibition of [3H]-gabapentin uptake preincubated for 3 mins at 37 degC followed by washing with choline buffer and measured after 3 hrs by scintillation counting analysis relative to BCH
# Assay type: cell-based
# Chain of Large neutral amino acids transporter small subunit 1 (Q01650 whole entry): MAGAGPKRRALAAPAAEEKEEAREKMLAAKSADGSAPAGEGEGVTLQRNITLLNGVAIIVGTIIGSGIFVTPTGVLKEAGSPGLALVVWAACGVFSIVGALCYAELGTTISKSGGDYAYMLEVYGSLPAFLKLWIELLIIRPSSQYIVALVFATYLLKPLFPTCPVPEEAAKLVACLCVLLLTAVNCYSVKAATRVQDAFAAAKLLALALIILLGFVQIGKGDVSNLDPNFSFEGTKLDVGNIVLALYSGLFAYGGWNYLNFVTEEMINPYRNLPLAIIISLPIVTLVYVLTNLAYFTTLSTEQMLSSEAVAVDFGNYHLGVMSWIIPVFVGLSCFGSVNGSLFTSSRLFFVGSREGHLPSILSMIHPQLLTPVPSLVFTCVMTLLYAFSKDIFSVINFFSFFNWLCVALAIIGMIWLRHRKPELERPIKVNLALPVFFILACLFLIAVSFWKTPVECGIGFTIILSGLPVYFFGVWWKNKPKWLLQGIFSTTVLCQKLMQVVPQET
row,SMILES,IC50
1,N[C@H](Cc1ccc(O)cc1)C(=O)O,380 µM
2,CC(C)[C@@H](N)C(=O)O,> 50000 µM
3,N[C@@H](Cc1cccc(O)c1)C(=O)O,130 µM
4,Cn1cnc(C[C@H](N)C(=O)O)c1,190 µM
5,CSCC[C@@H](N)C(=O)O,120 µM
6,N[C@@H](CC1CCCCC1)C(=O)O,200 µM
7,N[C@@H](Cc1cccc(C(=O)O)c1)C(=O)O,130 µM
8,CC(=O)c1cccc(C[C@H](N)C(=O)O)c1,92 µM
9,CC[C@H](C)[C@@H](N)C(=O)O,> 3000 µM
10,N[C@@H](Cc1cn(Cc2ccccc2)cn1)C(=O)O,170 µM
11,CNC(=O)c1cccc(C[C@H](N)C(=O)O)c1,96 µM
12,COC(=O)c1cc(C)cc(C[C@H](N)C(=O)O)c1,95 µM
13,COC(=O)c1cccc(C[C@H](N)C(=O)O)c1,36 µM
14,N[C@@H](Cc1cccnc1)C(=O)O,69 µM
15,COC(=O)Cc1cccc(C[C@H](N)C(=O)O)c1,76 µM
16,N[C@@H](Cc1ccccn1)C(=O)O,160 µM
17,NCc1cccc(C[C@H](N)C(=O)O)c1,470 µM
18,N[C@@H](Cc1cccc(C(=O)OCCO)c1)C(=O)O,29 µM
19,COC(=O)c1cccc(C[C@@H](N)C(=O)O)c1,150 µM
20,COC(=O)c1ccc(C[C@H](N)C(=O)O)cc1,260 µM
21,Nc1cccc(C[C@H](N)C(=O)O)c1,101 µM

row,SMILES,IC50
1,CSCC[C@](N)(Cc1ccccc1)C(=O)O,240 µM
2,CC(=O)Nc1cccc(C[C@H](N)C(=O)O)c1,110 µM
3,CC(C)(C)OC(=O)c1cccc(C[C@H](N)C(=O)O)c1,17 µM
4,Cc1cc(C[C@H](N)C(=O)O)cc(C(=O)O)c1,680 µM
5,N[C@@H](Cc1ccncc1)C(=O)O,100 µM
6,C[C@](N)(Cc1ccccc1)C(=O)O,130 µM
7,C[C@@](N)(Cc1ccccc1)C(=O)O,810 µM
8,N[C@@H](Cc1cccc(CO)c1)C(=O)O,83 µM
9,N[C@H](CC1CCCCC1)C(=O)O,260 µM
10,N[C@H](Cc1c[nH]cn1)C(=O)O [D-HISTIDINE],460 µM
11,CC(C)C[C@@H](N)C(=O)O [D-LEUCINE],220 µM
12,N[C@H](Cc1ccccc1)C(=O)O [D-PHENYLALANINE],46 µM
13,N[C@H](Cc1c[nH]c2ccccc12)C(=O)O [D-TRYPTOPHAN],380 µM
14,N[C@@H](Cc1c[nH]cn1)C(=O)O [HISTIDINE],20 µM
15,CC[C@H](C)[C@H](N)C(=O)O [ISOLEUCINE],140 µM
16,CC(C)C[C@H](N)C(=O)O [LEUCINE],85 µM
17,CSCC[C@H](N)C(=O)O [METHIONINE],170 µM
18,N[C@@H](Cc1ccccc1)C(=O)O [PHENYLALANINE],69 µM
19,N[C@@H](Cc1c[nH]c2ccccc12)C(=O)O [TRYPTOPHAN],160 µM
20,N[C@@H](Cc1ccc(O)cc1)C(=O)O [TYROSINE],68 µM
21,CC(C)[C@H](N)C(=O)O [VALINE],68 µM
